# Data: patent publication US20190240225A1, “COMBINATION OF A BCL-2 INHIBITOR AND A MCL-1 INHIBITOR, USES AND PHARMACEUTICAL COMPOSITIONS THEREOF” (LES LABORATOIRES SERVIER, priority 2016, published 2019)
# Like-named read-outs stand apart in the source and are kept apart here.
# Assays:
# Type in all cases: cell-based
# TANOUE = assay: CellTiterGlo viability, B-ALL cell line; settings: single agent, 72 h
# Description: (§1) In addition, all media contained penicillin (100 IU/ml), streptomycin (100 μg/ml) and L-glutamine (2 mM). Cell lines were cultured at 37° C. in a humidified atmosphere containing 5% CO2 and expanded in T-150 flasks. In all cases cells were thawed from frozen stocks, expanded through ≥1 passage using appropriate dilutions, counted and assessed for viability using a CASY cell counter prior to plating 150 ul/well at the densities indicated in Table 9 into 96-well plates. All cell lines were determined to be free of mycoplasma contamination in-house.
# (§2) Stock solutions of compounds were prepared at a concentration of 5 mM in DMSO and stored at −20° C. In order to analyse the activity of the compounds as single agents, cells were seeded and treated with nine 2-fold serial dilutions of each compound dispensed individually directly into the cell assay plates. Effects of the compounds on cell viability were assessed after 3 days of incubation at 37° C./5% CO2 by quantification of cellular ATP levels using CellTiterGlo at 75 μL reagent/well. All the conditions were tested in triplicates. Luminescence was quantified on a multipurpose plate reader. Single agent IC50s were calculated using standard four-parametric curve fitting. IC50 is defined as the compound concentration at which the CTG signal is reduced to 50% of that measured for the vehicle (DMSO) control.
# (§3) In order to analyse the activity of the compounds in combination, cells were seeded and treated with seven or eight 3.16-fold serial dilutions of each compound dispensed, either individually or in all possible permutations in a checkerboard fashion, directly into the cell assay plates as indicated in FIG. 1. Effects of the single agents as well as their checkerboard combinations on cell viability were assessed after 3 days of incubation at 37° C./5% CO2 by quantification of cellular ATP levels using CellTiterGlo at 75 μL reagent/well. For B-ALL cell lines, two independent experiments, each one performed in duplicates, were performed. For T-ALL cell lines, one experiment performed in triplicate was performed. Luminescence was quantified on a multipurpose plate reader.
# (§4) Potential synergistic interactions between compound combinations were assessed using the Excess Inhibition 2D matrix according to the Loewe additivity model and are reported as Synergy Score (Lehar et al, Nat Biotechnol. 2009 July; 27(7): 659-666). All calculations were performed using Chalice TM Bioinformatics Software available in Horizon website. The doubling time indicated in Table 9 is the mean of the doubling time obtained in the different passages (in T-150 flasks) performed from the thawing of the cells to their seeding in the 96-well plates.
# SUP-B15 = assay: CellTiterGlo viability, B-ALL cell line; settings: single agent, 72 h
# Description: as §1, §2, §3, §4
# NALM-21 = assay: CellTiterGlo viability, B-ALL cell line; settings: single agent, 72 h
# Description: as §1, §2, §3, §4
# TOM-1 = assay: CellTiterGlo viability, B-ALL cell line; settings: single agent, 72 h
# Description: as §1, §2, §3, §4
# RS4;11 = assay: CellTiterGlo viability, B-ALL cell line; settings: single agent, 72 h
# Description: as §1, §2, §3, §4
# Kasumi-2 = assay: CellTiterGlo viability, B-ALL cell line; settings: single agent, 72 h
# Description: as §1, §2, §3, §4
# BALL-1 = assay: CellTiterGlo viability, B-ALL cell line; settings: single agent, 72 h
# Description: as §1, §2, §3, §4
# SU-DHL-4 = assay: CellTiterGlo viability, DLBCL cell line; settings: single agent, 2 days; for IC50: read-out: Abs IC50
# Description: (§5) In addition, all media contained penicillin (100 IU/ml), streptomycin (100 μg/ml) and L-glutamine (2 mM). Unless otherwise mentioned, culture media and supplements were from Amimed/Bioconcept (Allschwil, Switzerland).
# (§6) Cell lines were cultured at 37° C. in a humidified atmosphere containing 5% CO2 and expanded in T-75 flasks. In all cases cells were thawed from frozen stocks, expanded through ≥1 passage using appropriate dilutions, counted and assessed for viability using a CASY cell counter (Omni Life Science, Bremen, Germany) prior to plating 25 ul/well at the densities indicated in Table 1 into 384-well plates (Corning). All cell lines were determined to be free of mycoplasma contamination by PCR assay performed at Idexx Radii (Columbia, Mo., USA) and misidentification ruled out by assessment of a panel of 48 Small Nucleotide Polymorphisms (SNPs) at Asuragen (Austin, Tex., USA) or in-house.
# (§7) Stock solutions of compounds were prepared at a concentration of 10 mM in DMSO (Sigma) and stored at −20° C. Where necessary to afford a full dose-response curve, the stock solutions were pre-diluted in DMSO to 1′000-fold the desired start concentration (see Table 2). On the day after cell seeding, eight 2.5-fold serial dilutions of each compound were dispensed, either individually or in all possible permutations in a checkerboard fashion, directly into the cell assay plates using a non-contact 300D Digital Dispenser (ILCAN, Mannedorf, Switzerland) as outlined in FIG. 4. The final concentration of DMSO was 0.2% in all wells.
# (§8) Effects of the single agents as well as their checkerboard combinations on cell viability were assessed after 2 days of incubation at 37° C./5% CO2 by quantification of cellular ATP levels using CellTiterGlo (Promega, Madison, Wis., USA) at 25 μL reagent/well and n=2 replicate plates per condition. Luminescence was quantified on a M1000 multipurpose platereader (ILCAN, Mannedorf, Switzerland). The number/viability of cells at time of compound addition was likewise assessed and used to assess the degree of the population doubling time of a particular cell line.
# (§9) Single agent IC50s were calculated using standard four-parametric curve fitting. […] IC50 are defined as the compound concentration at which the CTG signal is reduced to 50% of that measured for the vehicle (DMSO) control.
# NALM-6 = assay: CellTiterGlo viability, B-ALL cell line; settings: for IC50: NALM-6, B-ALL, single agent, 72 h; for growth inhibition: NALM-6 cells, fourth lowest concentration tested (FIG. 11, top left panel)
# Description: In addition, all media contained penicillin (100 IU/ml), streptomycin (100 μg/ml) and L-glutamine (2 mM). […] All cell lines were determined to be free of mycoplasma contamination in-house. Stock solutions of compounds were prepared at a concentration of 5 mM in DMSO and stored at −20° C. In order to analyse the activity of the compounds as single agents, cells were seeded and treated with nine 2-fold serial dilutions of each compound dispensed individually directly into the cell assay plates. […] All the conditions were tested in triplicates. Luminescence was quantified on a multipurpose plate reader. Single agent IC50s were calculated using standard four-parametric curve fitting. […] In order to analyse the activity of the compounds in combination, cells were seeded and treated with seven or eight 3.16-fold serial dilutions of each compound dispensed, either individually or in all possible permutations in a checkerboard fashion, directly into the cell assay plates as indicated in FIG. 1. […] For B-ALL cell lines, two independent experiments, each one performed in duplicates, were performed. For T-ALL cell lines, one experiment performed in triplicate was performed. Luminescence was quantified on a multipurpose plate reader. […] All calculations were performed using Chalice TM Bioinformatics Software available in Horizon website.
# SU-DHL-10 = assay: CellTiterGlo viability, DLBCL cell line; settings: single agent, 2 days; for IC50: read-out: Abs IC50
# Description: as §5, §6, §7, §8, §9
Compound,IC50 (TANOUE) [nM],IC50 (SUP-B15; Homo sapiens) [nM],IC50 (NALM-21) [nM],IC50 (TOM-1) [nM],IC50 (RS4;11; Homo sapiens) [nM],IC50 (Kasumi-2) [nM],IC50 (BALL-1; Homo sapiens) [nM],"IC50 (SU-DHL-4; Homo sapiens, 48 h) [nM]",Max Inh (SU-DHL-4) [%],IC50 (NALM-6; Homo sapiens) [nM],growth inhibition (NALM-6) [%],"IC50 (SU-DHL-10; Homo sapiens, SU-DHL10, 48 h) [nM]",Max Inh (SU-DHL-10) [%],IC50 (SUP-B15) [nM],IC50 (RS4;11) [nM],IC50 (BALL-1) [nM],IC50 (SU-DHL-4) [nM],IC50 (NALM-6) [nM],IC50 (SU-DHL-10) [nM]
"Cl.O=C(c1cc(-c2cc3c(cc2C(=O)N2Cc4ccccc4C[C@H]2CN2CCOCC2)OCO3)n2c1CCCC2)N(c1ccccc1)c1ccc(O)cc1 [Compound 1, HCl, N-(4-hydroxyphenyl)-3-{6-[((3S)-3-(4-morpholinylmethyl)-3,4-dihydro-2(1H)-isoquinolinyl)carbonyl]-1,3-benzodioxol-5-yl}-N-phenyl-5,6,7,8-tetrahydro-1-indolizine carboxamide hydrochloride]",17000,25,95,19,20,209,19,860,96.9,3630,8,≥ 10000,43.9,–,–,–,–,–,–
"COc1ccccc1-c1nccc(COc2ccccc2C[C@@H](Oc2ncnc3sc(-c4ccc(F)cc4)c(-c4ccc(OCCN5CCN(C)CC5)c(Cl)c4C)c23)C(=O)O)n1 [Compound 3, (2R)-2-{[(5Sa)-5-{3-chloro-2-methyl-4-[2-(4-methylpiperazin-1-yl)ethoxy]phenyl}-6-(4-fluorophenyl)thieno[2,3-d]pyrimidin-4-yl]oxy}-3-(2-{[2-(2-methoxyphenyl)pyrimidin-4-yl]methoxy}phenyl)propanoic acid]",6540,–,12,24,–,30,–,–,99.5,–,6,–,98.3,78,79,63,17.8,120,3.84
